Assay results from US20230391768A2, “IMIDAZOPYRIDINE DERIVATIVES AND AZA-IMIDAZOPYRIDINE DERIVATIVES AS JANUS KINASE 2 INHIBITORS AND USES THEREOF” (Dana-Farber Cancer Institute, Inc., priority 2018, published 2023).

How the values were obtained:
Experiment in all cases: KINOMEscan
Format in all cases: binding
DCAMKL1 = DCAMKL1 (Homo sapiens (Human), UniProt O15075); conditions: read-out: percent of control
Description: (§1) In vitro profiling of Compound I-2 (1 μM) was performed using the DiscoveRx KINOMEscan® platform.

MEK6 = MEK6 (Homo sapiens (Human), UniProt P52564); conditions: read-out: percent of control
Description: as §1

CAMKK1 = CAMKK1 (Homo sapiens (Human), UniProt Q8N5S9); conditions: read-out: percent of control
Sequence of CAMKK1 (Q8N5S9 whole entry): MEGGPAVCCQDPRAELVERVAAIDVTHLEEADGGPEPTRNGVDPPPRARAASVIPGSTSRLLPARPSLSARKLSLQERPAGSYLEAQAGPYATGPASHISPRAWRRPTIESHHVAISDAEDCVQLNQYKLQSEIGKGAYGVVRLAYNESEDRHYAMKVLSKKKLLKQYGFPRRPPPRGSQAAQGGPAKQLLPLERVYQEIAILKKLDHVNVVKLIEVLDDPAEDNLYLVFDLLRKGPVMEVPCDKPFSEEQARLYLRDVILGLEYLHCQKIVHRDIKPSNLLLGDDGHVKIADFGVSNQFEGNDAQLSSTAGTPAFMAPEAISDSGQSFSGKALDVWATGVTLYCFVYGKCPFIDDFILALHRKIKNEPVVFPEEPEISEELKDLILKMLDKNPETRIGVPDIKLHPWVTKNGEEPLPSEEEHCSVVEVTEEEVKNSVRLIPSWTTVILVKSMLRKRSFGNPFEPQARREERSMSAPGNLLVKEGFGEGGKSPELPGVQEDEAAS
Description: as §1

RET (V804L) = RET (V804L) (Homo sapiens (Human), UniProt P07949, V804L); conditions: read-out: percent of control
Description: as §1

PRKD2 = PRKD2 (Homo sapiens (Human), UniProt Q9BZL6); conditions: read-out: percent of control
Description: as §1

GRK2 = GRK2 (Homo sapiens (Human), UniProt P25098); conditions: read-out: percent of control
Description: as §1

PIM2 = PIM2 (Homo sapiens (Human), UniProt Q9P1W9); conditions: read-out: percent of control
Sequence of PIM2 (Q9P1W9 whole entry): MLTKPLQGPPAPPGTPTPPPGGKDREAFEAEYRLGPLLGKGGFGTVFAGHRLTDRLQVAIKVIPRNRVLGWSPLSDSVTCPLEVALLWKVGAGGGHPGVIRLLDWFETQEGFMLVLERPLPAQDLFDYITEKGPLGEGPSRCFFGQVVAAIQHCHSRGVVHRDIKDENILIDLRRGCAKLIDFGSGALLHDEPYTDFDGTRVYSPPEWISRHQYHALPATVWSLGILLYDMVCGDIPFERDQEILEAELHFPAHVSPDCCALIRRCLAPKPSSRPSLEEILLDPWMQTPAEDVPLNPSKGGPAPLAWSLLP
Description: as §1

EGFR(E746-A750del) = EGFR(E746-A750del) (Homo sapiens (Human), UniProt P00533, DEL746-750); conditions: read-out: percent of control
Sequence of EGFR(E746-A750del) (P00533 other isoform, or with tags, fused parts or gaps del E746-A750): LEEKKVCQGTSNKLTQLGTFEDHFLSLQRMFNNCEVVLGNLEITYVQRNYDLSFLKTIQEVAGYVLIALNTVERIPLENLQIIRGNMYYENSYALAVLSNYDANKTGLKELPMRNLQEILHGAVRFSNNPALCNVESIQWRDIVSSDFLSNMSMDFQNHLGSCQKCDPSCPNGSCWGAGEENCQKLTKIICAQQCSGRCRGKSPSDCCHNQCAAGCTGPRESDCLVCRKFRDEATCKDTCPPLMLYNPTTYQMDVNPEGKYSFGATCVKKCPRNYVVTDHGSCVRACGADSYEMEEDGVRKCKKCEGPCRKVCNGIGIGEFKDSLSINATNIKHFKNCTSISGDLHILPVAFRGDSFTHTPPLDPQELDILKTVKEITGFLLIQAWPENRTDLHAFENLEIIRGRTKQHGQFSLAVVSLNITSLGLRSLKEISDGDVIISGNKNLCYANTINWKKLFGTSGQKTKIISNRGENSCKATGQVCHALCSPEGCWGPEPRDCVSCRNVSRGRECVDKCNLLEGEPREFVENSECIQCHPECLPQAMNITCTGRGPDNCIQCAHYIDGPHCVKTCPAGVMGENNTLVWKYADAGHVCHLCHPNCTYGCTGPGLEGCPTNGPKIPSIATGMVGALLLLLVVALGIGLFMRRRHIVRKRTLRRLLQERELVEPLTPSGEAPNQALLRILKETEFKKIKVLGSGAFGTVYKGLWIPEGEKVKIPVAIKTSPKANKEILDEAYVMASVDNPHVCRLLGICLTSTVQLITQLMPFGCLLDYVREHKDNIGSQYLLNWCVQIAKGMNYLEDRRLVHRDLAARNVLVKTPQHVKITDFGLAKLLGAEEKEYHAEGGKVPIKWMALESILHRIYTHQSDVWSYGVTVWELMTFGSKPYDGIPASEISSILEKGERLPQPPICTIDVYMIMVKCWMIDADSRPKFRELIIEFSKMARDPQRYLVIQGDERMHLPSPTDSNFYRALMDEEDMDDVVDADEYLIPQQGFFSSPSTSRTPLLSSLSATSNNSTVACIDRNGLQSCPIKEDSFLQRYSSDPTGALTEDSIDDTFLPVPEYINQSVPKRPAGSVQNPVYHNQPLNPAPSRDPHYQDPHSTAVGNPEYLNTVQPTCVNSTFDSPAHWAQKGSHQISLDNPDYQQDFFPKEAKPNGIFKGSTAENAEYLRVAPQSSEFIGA
Description: as §1

FLT3 (ITD,D835V) = conditions: 1 μM
Description: as §1

QSK = QSK (Homo sapiens (Human), UniProt Q9Y2K2); conditions: read-out: percent of control
Description: as §1

MUSK = MUSK (Homo sapiens (Human), UniProt O15146); conditions: read-out: percent of control
Sequence of MUSK (O15146 24-869): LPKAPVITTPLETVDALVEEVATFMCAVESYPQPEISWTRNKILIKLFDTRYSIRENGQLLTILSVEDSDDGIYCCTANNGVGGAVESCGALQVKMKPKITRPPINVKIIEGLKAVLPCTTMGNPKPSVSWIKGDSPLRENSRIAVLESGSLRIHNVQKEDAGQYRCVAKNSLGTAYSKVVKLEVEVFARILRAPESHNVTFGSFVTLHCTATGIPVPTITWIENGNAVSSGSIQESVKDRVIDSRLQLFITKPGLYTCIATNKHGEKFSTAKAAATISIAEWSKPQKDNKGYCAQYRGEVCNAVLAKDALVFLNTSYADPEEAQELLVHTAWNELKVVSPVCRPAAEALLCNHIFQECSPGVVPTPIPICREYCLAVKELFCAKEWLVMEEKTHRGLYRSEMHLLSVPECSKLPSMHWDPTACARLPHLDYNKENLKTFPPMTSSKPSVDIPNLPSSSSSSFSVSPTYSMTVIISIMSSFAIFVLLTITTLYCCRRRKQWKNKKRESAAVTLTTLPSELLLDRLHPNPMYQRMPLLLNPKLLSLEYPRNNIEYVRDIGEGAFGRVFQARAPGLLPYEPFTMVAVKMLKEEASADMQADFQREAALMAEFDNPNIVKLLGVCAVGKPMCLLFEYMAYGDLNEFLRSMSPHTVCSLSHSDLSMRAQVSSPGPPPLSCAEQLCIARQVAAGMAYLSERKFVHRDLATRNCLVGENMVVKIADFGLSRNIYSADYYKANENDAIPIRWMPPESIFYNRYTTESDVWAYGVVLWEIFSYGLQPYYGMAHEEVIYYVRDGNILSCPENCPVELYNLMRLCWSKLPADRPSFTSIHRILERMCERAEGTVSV
Description: as §1

PIK3CA(E542K) = PIK3CA(E542K) (Homo sapiens (Human), UniProt P42336, E542K); conditions: read-out: percent of control
Description: as §1

MAK = MAK (Homo sapiens (Human), UniProt P20794); conditions: read-out: percent of control
Description: as §1

ERBB2 = ERBB2 (Homo sapiens (Human), UniProt P04626); conditions: read-out: percent of control
Description: as §1

LATS2 = LATS2 (Homo sapiens (Human), UniProt Q9NRM7); conditions: read-out: percent of control
Description: as §1

TSSK1B = TSSK1B (Homo sapiens (Human), UniProt Q9BXA7); conditions: read-out: percent of control
Description: as §1

[1] = target: ABL1(Q252H)-phosphorylated (Homo sapiens (Human), UniProt P00519, Q252H); conditions: read-out: percent of control
Description: as §1

SLK = SLK (Homo sapiens (Human), UniProt Q9H2G2); conditions: read-out: percent of control
Description: as §1

ERBB3 = ERBB3 (Homo sapiens (Human), UniProt P21860); conditions: read-out: percent of control
Description: as §1

[2] = target: ABL1(F317L)-nonphosphorylated (Homo sapiens (Human), UniProt P00519, F317L); conditions: read-out: percent of control
Description: as §1

SRPK1 = SRPK1 (Homo sapiens (Human), UniProt Q96SB4); conditions: read-out: percent of control
Description: as §1

PLK3 = PLK3 (Homo sapiens (Human), UniProt Q9H4B4); conditions: read-out: percent of control
Description: as §1

TAOK1 = TAOK1 (Homo sapiens (Human), UniProt Q7L7X3); conditions: read-out: percent of control
Description: as §1

ICK = ICK (Homo sapiens (Human), UniProt Q9UPZ9); conditions: read-out: percent of control
Sequence of ICK (Q9UPZ9 whole entry): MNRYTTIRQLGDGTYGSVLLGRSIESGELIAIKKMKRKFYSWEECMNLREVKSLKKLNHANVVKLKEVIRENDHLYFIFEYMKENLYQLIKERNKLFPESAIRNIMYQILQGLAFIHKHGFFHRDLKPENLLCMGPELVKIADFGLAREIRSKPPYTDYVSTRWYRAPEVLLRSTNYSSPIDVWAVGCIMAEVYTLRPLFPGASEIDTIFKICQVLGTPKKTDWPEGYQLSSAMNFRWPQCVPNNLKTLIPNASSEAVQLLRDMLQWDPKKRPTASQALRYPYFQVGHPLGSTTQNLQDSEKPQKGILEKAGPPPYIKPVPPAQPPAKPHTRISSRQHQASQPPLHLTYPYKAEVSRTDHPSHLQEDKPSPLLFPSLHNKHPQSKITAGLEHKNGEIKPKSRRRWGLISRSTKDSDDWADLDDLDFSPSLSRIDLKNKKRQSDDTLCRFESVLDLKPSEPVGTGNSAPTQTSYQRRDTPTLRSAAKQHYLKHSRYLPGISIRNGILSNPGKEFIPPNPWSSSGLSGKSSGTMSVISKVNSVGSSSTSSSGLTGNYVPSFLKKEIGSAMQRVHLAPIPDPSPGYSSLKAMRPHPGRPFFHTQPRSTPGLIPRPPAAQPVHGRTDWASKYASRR
Description: as §1

FLT3-autoinhibited = FLT3-autoinhibited (Homo sapiens (Human), UniProt P36888); conditions: read-out: percent of control
Sequence of FLT3-autoinhibited (P36888 564-993 limits assumed): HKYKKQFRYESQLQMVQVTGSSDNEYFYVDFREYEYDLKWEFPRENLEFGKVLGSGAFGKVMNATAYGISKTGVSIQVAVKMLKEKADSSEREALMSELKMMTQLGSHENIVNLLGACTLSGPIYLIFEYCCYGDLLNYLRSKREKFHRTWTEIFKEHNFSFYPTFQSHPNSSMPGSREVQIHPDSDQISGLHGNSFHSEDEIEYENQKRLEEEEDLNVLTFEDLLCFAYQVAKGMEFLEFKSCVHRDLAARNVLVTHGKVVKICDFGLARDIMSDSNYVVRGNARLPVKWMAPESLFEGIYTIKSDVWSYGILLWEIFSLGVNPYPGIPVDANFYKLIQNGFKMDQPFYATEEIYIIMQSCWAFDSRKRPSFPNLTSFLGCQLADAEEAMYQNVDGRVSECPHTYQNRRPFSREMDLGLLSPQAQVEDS
Description: as §1

ULK = ULK (Homo sapiens (Human), UniProt O75385); conditions: read-out: percent of control
Description: as §1

ACVR2A = ACVR2A (Homo sapiens (Human), UniProt P27037); conditions: read-out: percent of control
Sequence of ACVR2A (P27037 20-513): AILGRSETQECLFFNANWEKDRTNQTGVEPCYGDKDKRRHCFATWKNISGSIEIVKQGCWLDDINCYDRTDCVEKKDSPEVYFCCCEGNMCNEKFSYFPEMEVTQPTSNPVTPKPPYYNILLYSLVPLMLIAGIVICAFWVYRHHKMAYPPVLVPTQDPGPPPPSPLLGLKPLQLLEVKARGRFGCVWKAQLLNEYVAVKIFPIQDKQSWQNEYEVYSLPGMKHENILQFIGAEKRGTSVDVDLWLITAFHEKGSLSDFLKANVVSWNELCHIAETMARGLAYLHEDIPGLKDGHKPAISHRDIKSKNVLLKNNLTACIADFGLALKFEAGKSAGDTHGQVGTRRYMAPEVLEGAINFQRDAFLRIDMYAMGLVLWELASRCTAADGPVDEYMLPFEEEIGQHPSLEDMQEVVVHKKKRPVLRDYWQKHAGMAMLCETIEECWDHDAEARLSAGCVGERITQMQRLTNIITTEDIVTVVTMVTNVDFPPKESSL
Description: as §1

PRKR = PRKR (Homo sapiens (Human), UniProt P19525); conditions: read-out: percent of control
Sequence of PRKR (P19525 whole entry): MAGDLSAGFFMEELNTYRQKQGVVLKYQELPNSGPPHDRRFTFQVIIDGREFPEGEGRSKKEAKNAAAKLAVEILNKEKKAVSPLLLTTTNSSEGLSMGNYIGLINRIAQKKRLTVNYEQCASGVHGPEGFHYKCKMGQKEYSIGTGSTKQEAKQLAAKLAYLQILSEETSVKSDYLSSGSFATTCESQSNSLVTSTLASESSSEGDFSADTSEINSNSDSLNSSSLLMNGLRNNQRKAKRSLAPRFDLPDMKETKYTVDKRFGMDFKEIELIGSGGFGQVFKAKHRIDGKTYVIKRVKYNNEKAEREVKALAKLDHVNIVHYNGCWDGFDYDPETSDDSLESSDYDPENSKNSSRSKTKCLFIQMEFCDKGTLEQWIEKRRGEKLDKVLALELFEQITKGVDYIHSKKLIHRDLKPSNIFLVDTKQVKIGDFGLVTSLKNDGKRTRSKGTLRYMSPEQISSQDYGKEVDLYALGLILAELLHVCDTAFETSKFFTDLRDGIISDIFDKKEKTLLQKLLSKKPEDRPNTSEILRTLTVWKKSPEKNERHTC
Description: as §1

EPHB2 = EPHB2 (Homo sapiens (Human), UniProt P29323); conditions: read-out: percent of control
Description: as §1

CIT = CIT (Homo sapiens (Human), UniProt O14578); conditions: read-out: percent of control
Description: as §1

MST1R = MST1R (Homo sapiens (Human), UniProt Q04912); conditions: read-out: percent of control
Description: as §1

ACVR2B = ACVR2B (Homo sapiens (Human), UniProt Q13705); conditions: read-out: percent of control
Description: as §1

MARK1 = MARK1 (Homo sapiens (Human), UniProt Q9P0L2); conditions: read-out: percent of control
Description: as §1

RIPK2 = RIPK2 (Homo sapiens (Human), UniProt O43353); conditions: read-out: percent of control
Description: as §1

[3] = target: RSK1 (Kin.Dom.1-N-terminal) (Homo sapiens (Human), UniProt Q15418); conditions: read-out: percent of control
Description: as §1

CAMK1D = CAMK1D (Homo sapiens (Human), UniProt Q8IU85); conditions: read-out: percent of control
Description: as §1

GFR(L747-S752del, P753S) = target: GFR(L747-S752del, P753S (Homo sapiens (Human), UniProt P00533, DEL747-752/P753S)); conditions: read-out: percent of control
Description: as §1

PFTAIRE2 = PFTAIRE2 (Homo sapiens (Human), UniProt Q96Q40); conditions: read-out: percent of control
Description: as §1

Structure (SMILES) | remaining binding at 1 µM (DCAMKL1) [%] | remaining binding at 1 µM (MEK6) [%] | remaining binding at 1 µM (CAMKK1) [%] | remaining binding at 1 µM (RET (V804L)) [%] | remaining binding at 1 µM (PRKD2) [%] | remaining binding at 1 µM (GRK2) [%] | remaining binding at 1 µM (PIM2) [%] | remaining binding at 1 µM (EGFR(E746-A750del)) [%] | percent of control (FLT3 (ITD,D835V)) [%] | remaining binding at 1 µM (QSK) [%] | remaining binding at 1 µM (MUSK) [%] | remaining binding at 1 µM (PIK3CA(E542K)) [%] | remaining binding at 1 µM (MAK) [%] | remaining binding at 1 µM (ERBB2) [%] | remaining binding at 1 µM (LATS2) [%] | remaining binding at 1 µM (TSSK1B) [%] | remaining binding at 1 µM [1] [%] | remaining binding at 1 µM (SLK) [%] | remaining binding at 1 µM (ERBB3) [%] | remaining binding at 1 µM [2] [%] | also measured
CCN1CCN(Cc2cc(NC(=O)c3ccc(C)c(-c4ccc5nc(NC(=O)C6CC6)cn5n4)c3)cc(C(F)(F)F)c2)CC1 [Compound I-2, 3-(2-(cyclopropanecarboxamido)imidazo[1,2-b]pyridazin-6-yl)-N-(3-((4-ethylpiperazin-1-yl)methyl)-5-(trifluoromethyl)phenyl)-4-methylbenzamide] | 90 | 94 | 12 | 0.15 | 97 | 94 | 96 | 29 | 61 | 92 | 0.6 | 96 | 11 | 82 | 79 | 96 | 0.35 | 1.6 | 100 | 0 | remaining binding at 1 µM (SRPK1): 85%; remaining binding at 1 µM (PLK3): 100%; remaining binding at 1 µM (TAOK1): 3.9%; remaining binding at 1 µM (ICK): 50%; remaining binding at 1 µM (FLT3-autoinhibited): 56%; remaining binding at 1 µM (ULK): 89%; remaining binding at 1 µM (ACVR2A): 63%; remaining binding at 1 µM (PRKR): 97%; remaining binding at 1 µM (EPHB2): 0%; remaining binding at 1 µM (CIT): 0.1%; remaining binding at 1 µM (MST1R): 83%; remaining binding at 1 µM (ACVR2B): 96%; remaining binding at 1 µM (MARK1): 91%; remaining binding at 1 µM (RIPK2): 89%; remaining binding at 1 µM [3]: 97%; remaining binding at 1 µM (CAMK1D): 97%; remaining binding at 1 µM (GFR(L747-S752del, P753S)): 19%; remaining binding at 1 µM (PFTAIRE2): 0.9%
CCN1CCN(Cc2cc(NC(=O)c3ccc(C)c(-c4ccc5nc(NC(=O)C6CC6)cn5c4)c3)cc(C(F)(F)F)c2)CC1 [Compound I-6, 3-(2-(cyclopropanecarboxamido)imidazo[1,2-a]pyridin-6-yl)-N-(3-((4-ethylpiperazin-1-yl)methyl)-5-(trifluoromethyl)phenyl)-4-methylbenzamide] | 84 | 95 | 53 | 0 | 100 | 63 | 97 | 25 | 76 | 83 | 2.1 | 100 | 22 | 71 | 85 | 76 | 0.6 | 2.4 | 93 | 0 | remaining binding at 1 µM (SRPK1): 57%; remaining binding at 1 µM (PLK3): 100%; remaining binding at 1 µM (TAOK1): 4.5%; remaining binding at 1 µM (ICK): 68%; remaining binding at 1 µM (FLT3-autoinhibited): 58%; remaining binding at 1 µM (ULK): 100%; remaining binding at 1 µM (ACVR2A): 100%; remaining binding at 1 µM (PRKR): 95%; remaining binding at 1 µM (EPHB2): 0%; remaining binding at 1 µM (CIT): 0.35%; remaining binding at 1 µM (MST1R): 100%; remaining binding at 1 µM (ACVR2B): 100%; remaining binding at 1 µM (MARK1): 77%; remaining binding at 1 µM (RIPK2): 35%; remaining binding at 1 µM [3]: 100%; remaining binding at 1 µM (CAMK1D): 93%; remaining binding at 1 µM (GFR(L747-S752del, P753S)): 12%; remaining binding at 1 µM (PFTAIRE2): 3.6%
